Experimental data as given in patent publication US8329675B2, “Inhibitors of fatty acid amide hydrolase” (Infinity Pharmaceuticals, Inc., priority 2006, dated 2012).
Where two headings read alike, the source gives them in different places.

Target: T1, human FAAH (Homo sapiens, UniProt O00519)
T1 construct: host or cells: COS-7 cells, transient transfection; 13,000 g membrane fraction solubilised in 1% Triton X-100
T1 sequence (O00519 1-579): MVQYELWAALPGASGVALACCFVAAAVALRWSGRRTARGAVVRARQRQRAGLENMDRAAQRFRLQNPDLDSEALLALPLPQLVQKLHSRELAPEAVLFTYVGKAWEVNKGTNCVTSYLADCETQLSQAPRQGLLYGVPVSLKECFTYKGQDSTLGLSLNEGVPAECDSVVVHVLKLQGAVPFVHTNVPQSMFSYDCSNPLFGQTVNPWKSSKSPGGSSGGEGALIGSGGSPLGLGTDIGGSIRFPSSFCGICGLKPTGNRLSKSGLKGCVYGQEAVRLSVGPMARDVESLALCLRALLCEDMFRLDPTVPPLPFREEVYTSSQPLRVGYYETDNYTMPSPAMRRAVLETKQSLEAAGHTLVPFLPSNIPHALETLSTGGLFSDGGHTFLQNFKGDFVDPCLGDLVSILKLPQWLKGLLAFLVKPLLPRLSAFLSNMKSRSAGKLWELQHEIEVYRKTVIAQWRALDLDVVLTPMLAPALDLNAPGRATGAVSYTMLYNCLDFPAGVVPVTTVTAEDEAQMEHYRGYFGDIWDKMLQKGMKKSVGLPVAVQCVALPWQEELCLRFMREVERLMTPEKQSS
Experiment: Human FAAH biochemical inhibition assay (AMC arachidonoyl amide fluorescence)
Protocol: The resulting solution is added into one dish of 30-40% confluent COS-7 cells in a drop-wise manner. The COS-7 cell dish is subsequently incubated for 48 hours. The cells are then harvested.
Harvest procedure: Media was aspirated from the dishes and the cells rinsed with 10 mL PBS. The PBS was removed and 3 mLs of PBS added to the dish. The dish was scraped to resuspend the cells, and the subsequent cell suspension collected into a 15 ml conical tube. The cells were pelleted by centrifugation at 1200 rpm for 5 minutes in a bench top centrifuge. PBS was removed and the cell pellet snap frozen in liquid nitrogen, store at −80 C.
The pellets were dounce homogenized and then sonicated to produce cell extract. The cell extract was subsequently centrifuged at 1000 g to remove cellular debris. The pellet was discarded and the supernatant centrifuged at 13,000 g for 20 minutes. The pellet contained membrane bound FAAH. The supernatant was discarded and the pellet resolubilized.
(2) Re-solubilization: The fraction of interest, (13,000 g, membrane fraction) was re-suspended in re-suspension buffer (20 mM Hepes pH 7.8, 10% v/v Glycerol, 1 mM EDTA, 1% Triton X-100) (2.3 mL re-suspension and the sample incubated on ice for 1 hour and then centrifuged to at 13,000 g remove any particulate matter. The supernatant containing solubilized human FAAH was aliquoted and snap frozen in liquid nitrogen and stored at −80° C. until use.
FAAH reaction buffer: 50 mM Hepes (pH 7.5), 1 mM EDTA, 0.2% Triton X-100.
Human FAAH assay; Experimental Protocol: A 0.1 mg/mL Human FAAH solution is made up in FAAH reaction buffer, and 24 ul pipetted into a 384 well plate. To this is added 1 uL of a 3 fold serially diluted inhibitor from a DMSO stock solution. The FAAH solution and inhibitor are incubated for 30 minutes at room temperature. The FAAH reaction is initiated by the addition of 25 uL of 40 uM AMC Arachidonoyl Amide in FAAH reaction buffer, yielding a final reaction human FAAH preparation concentration of 0.05 mg/ml and AMC-Arachidonoyl substrate concentration of 20 uM, reaction volume 50 uL. The reaction is allowed to proceed for 4 hours at room temperature. […] The microtiter plate in read in the envision plate reader.

[1] = Table 2, human FAAH (no asterisk), read-out: Activity (Ki)
[2] = Table 1, human FAAH (no asterisk), read-out: Activity (Ki)

Structure (SMILES)	Ki [1] [nM]	Ki [2] [nM]	also measured
Nc1ccc(Oc2ccc(B(O)O)cc2)cc1 [II-286]	10 to 100		
OB(O)c1ccc(COC2CCCc3ccccc32)cc1 (centres unmarked) [II-123]	10 to 100		
OB(O)c1ccc(OCCCc2ccccc2)cc1F [II-156]	< 10		
COc1cccc(Oc2ccc(B(O)O)cc2)c1 [II-279]	< 10		
CCCOc1c(Br)cc(F)cc1B(O)O [Compound I-8]		> 1000	
COc1cc(Br)cc(B(O)O)c1 [Compound I-17]		> 1000	
OB(O)c1ccc(-c2ccccc2)cc1 [Compound I-187]			Ki: 10 to 100 nM
OB(O)c1ccc(Cl)s1 [Compound I-37]		10 to 1000	
O=c1ccccn1CCCOc1ccc(B(O)O)cc1 [II-122]	10 to 100		
Cc1ccc2scc(B(O)O)c2c1 [II-65]	10 to 1000		
C[C@@H](NC(=O)c1ccc(B(O)O)cc1)c1ccccc1 [II-171]	10 to 100		
OB(O)c1ccc(OCCc2cccc(OCCCc3ccccc3)c2)cc1F [II-17]	< 10		
Cc1sc2ccccc2c1B(O)O [II-58]	> 1000		
OB(O)c1ccc2ccccc2c1 [Compound I-178]		10 to 100	
OB(O)c1ccc(OCCc2cccc(Cl)c2)cc1F [II-61]	< 10		
COc1ccc(B(O)O)cc1Cl [Compound I-32]		10 to 1000	
C[C@@H](COc1ccc(B(O)O)c(F)c1)c1ccccc1 [II-139]	< 10		
[O-][S+](Cc1ccccc1)c1ccc(B(O)O)cc1 (centres unmarked) [II-233]	10 to 100		
CC1(C)OB(c2ccc(OCc3ccccn3)cc2F)OC1(C)C [II-176]	< 10		
[O-][S+](Cc1ccc(B(O)O)cc1)c1ccccc1 (centres unmarked) [II-232]	10 to 1000		
CC(C)(C)OC(=O)Nc1ccc(CCOc2ccc(B(O)O)c(F)c2)cc1 [II-39]	10 to 100		
OB(O)c1ccc(OCc2ccc(Cl)cc2)cc1 [II-269]	< 10		
OB(O)c1ccc(OCc2ccccc2)cc1 [II-314]	10 to 100		

Structure (SMILES)	Ki [1] [nM]	Ki [2] [nM]	also measured
OB(O)Cc1ccc(-c2ccccc2)cc1 [II-99]	> 1000		
OB(O)c1cc2ccccc2c2ccccc12 [Compound I-183]		> 1000	
CC1(C)OB(c2ccc(OCc3cnco3)cc2F)OC1(C)C [II-148]	10 to 100		
CN(C)[C@@H](COc1ccc(B(O)O)c(F)c1)Cc1ccccc1 [II-103]	> 1000		
OB(O)c1ccc(Oc2cc(F)c(F)c(F)c2)cc1 [II-263]	< 10		
O=C(C(Oc1ccc(B(O)O)cc1)c1ccccc1)N1CCCCC1 (centres unmarked) [II-216]	10 to 1000		
O=C(NCc1ccco1)c1ccc(B(O)O)cc1 [Compound I-167]		10 to 100	
COc1ccc(CNC(=O)Nc2ccc(B3OC(C)(C)C(C)(C)O3)cc2)cc1 [Compound I-122]		10 to 1000	
CN(C)c1ccc(/N=N/c2ccc(B(O)O)cc2)cc1 [II-182]	10 to 100		
CC(C)(C)c1ccc(B(O)O)cc1 [Compound I-94]		10 to 100	
OB(O)c1ccc(/C=C\c2ccccc2)cc1 [II-189]	> 1000		
CCCc1ccc(-c2ccc(B(O)O)cc2)cc1 [II-297]	10 to 100		
OB(O)c1ccc(F)c(OCC(F)(F)F)c1 [Compound I-28]		10 to 1000	
OB(O)c1ccc(CN2CCCc3ccccc32)cc1 [II-143]	< 10		
COC(=O)C(Oc1ccc(B(O)O)cc1)c1ccccc1 (centres unmarked) [II-224]	10 to 100		
O=C(NCCc1ccccc1)c1ccc(B(O)O)cc1 [Compound I-123]		< 10	
Cc1ccc(B(O)O)cc1Cl [Compound I-33]		10 to 1000	
OB(O)c1ccc(COCc2ccccc2C(F)(F)F)cc1F [II-74]	< 10		
OB(O)c1cccc(OCCc2ccccc2)c1 [II-113]	10 to 100		
c1ccc(B2CCCO2)cc1 [II-186]	> 1000		
OB(O)c1ccc(OCc2cccc(Br)c2)c(Cl)c1 [Compound I-147]		< 10	
OB(O)c1c(F)c(F)c(Br)c(F)c1F [Compound I-44]		> 1000	
CC(C)c1cccc(Oc2ccc(B(O)O)cc2)c1 [II-246]	< 10		

Structure (SMILES)	Ki [1] [nM]	Ki [2] [nM]	also measured
Cc1cc(Oc2ccc(B(O)O)c(F)c2)ccc1Cl [II-213]	< 10		
OB(O)c1ccsc1 [Compound I-92]		> 1000	
CCOc1ccc2cc(B(O)O)ccc2c1 [Compound I-52]		< 10	
Cc1cc(Cl)cc(B(O)O)c1 [Compound I-20]		10 to 1000	
OB(O)c1ccc(O)cc1 [Compound I-74]		> 1000	
CC(=O)c1ccc(-c2ccc(B(O)O)cc2)cc1 [II-295]	< 10		
OB(O)c1ccc(Oc2cccc(F)c2)cc1 [II-291]	< 10		
O=C(c1cccc(Oc2ccc(B(O)O)cc2)c1)N1CCCC1 [II-226]	10 to 100		
OB(O)c1ccc(Oc2ccc(F)cc2)cc1 [II-290]	< 10		
CN(C)c1cccc(-c2ccc(B(O)O)c(F)c2)c1 [II-4]	< 10		
N#Cc1ccc(B(O)O)cc1 [Compound I-46]		10 to 1000	
CN(C)c1cccc(Oc2ccc(B(O)O)cc2)c1 [II-78]	< 10		
OB(O)c1ccc(-c2nc3ccccc3[nH]2)cc1 [II-64]	> 1000		
CCCCOc1cccc(CCOc2ccc(B(O)O)c(F)c2)c1 [II-18]	< 10		
OB(O)c1ccc2nccn2c1 [Compound I-109]		> 1000	
COc1ccc(Oc2cccc(Oc3ccc(B(O)O)cc3)c2)cc1 [II-193]	< 10		
OB(O)c1ccc(-c2ccccc2)s1 [Compound I-196]		10 to 100	
OB(O)c1ccc(COCC23CC4CC(CC(C4)C2)C3)cc1 [II-101]	10 to 100		
COc1cccc(CCOc2ccc(B(O)O)c(F)c2)c1 [II-51]	< 10		
CCCOc1ccc(B(O)O)cc1 [Compound I-60]		10 to 100	
OB(O)c1ccc2c(c1)CCO2 [Compound I-103]		> 1000	
CC1(C)OB(c2ccc(Oc3cccnc3)cc2F)OC1(C)C [II-150]	< 10		
OB(O)c1ccc(C2CCCC2)cc1 [Compound I-43]		< 10	

Structure (SMILES)	Ki [1] [nM]	Ki [2] [nM]	also measured
OB(O)c1cccc(CCOc2ccccc2)c1 [II-121]	10 to 100		
O=C(CCc1ccc(B(O)O)c(F)c1)c1ccccc1 [II-27]	< 10		
OB(O)c1ccc(OCc2ccccn2)cc1F [II-175]	> 1000		
OB(O)c1ccc(CN(Cc2ccccc2)Cc2ccccc2)cc1 [II-157]	10 to 1000		
OB(O)c1ccc(Oc2cccc(F)c2)c(F)c1F [II-194]	< 10		
CCCCOc1cccc(Oc2ccc(B(O)O)cc2)c1 [II-243]	< 10		
OB(O)c1ccc(Oc2cccc(Oc3ccc(Cl)cc3)c2)cc1 [II-191]	< 10		
OB(O)c1ccc(Oc2ccc(F)c(F)c2)cc1 [II-261]	< 10		
COc1ccc(Oc2ccc(B(O)O)cc2)cc1Cl [II-252]	< 10		
OB(O)c1ccccc1 [Compound I-107]		> 1000	
CC(C)(C)OC(=O)N1CCC[C@H]1COCc1ccc(B(O)O)cc1 [II-107]	10 to 100		
O=C(c1ccccc1)c1ccc(B(O)O)cc1 [Compound I-202]		< 10	
CC(C)Oc1cccc(Oc2ccc(B(O)O)cc2)c1 [II-245]	< 10		
OB(O)c1cccnc1 [Compound I-91]		> 1000	
OB(O)c1ccc(Oc2cccc(OC(F)(F)F)c2)cc1F [II-212]	< 10		
OB(O)c1ccc(-c2cccc3ccccc23)cc1F [II-16]	10 to 100		
CCCCOc1ccc(B(O)O)cc1 [Compound I-61]		10 to 100	
OB(O)c1ccc(Cc2ccccc2)cc1 [II-82]	< 10		
Cc1ccc(B(O)O)cc1C [Compound I-80]		10 to 1000	
OB(O)c1ccc(OC2Cc3ccccc3C2)cc1F [II-138]	< 10		
OB(O)c1ccc(-c2ccco2)cc1 [II-59]	10 to 100		
CC(=O)c1ccc(B(O)O)cc1 [Compound I-85]		10 to 1000	
CCCCOc1ccc(B(O)O)cc1Cl [Compound I-38]		< 10	
